Columns and labels:
[1] = molecular target: T1, human leukocyte elastase (ELH) (Homo sapiens, UniProt P08246); experiment: in vitro anti-elastasic activity on Me-OSAAPV-p-NA substrate; format: biochemical; conditions: even in a small amount
T1 sequence (P08246 30-267): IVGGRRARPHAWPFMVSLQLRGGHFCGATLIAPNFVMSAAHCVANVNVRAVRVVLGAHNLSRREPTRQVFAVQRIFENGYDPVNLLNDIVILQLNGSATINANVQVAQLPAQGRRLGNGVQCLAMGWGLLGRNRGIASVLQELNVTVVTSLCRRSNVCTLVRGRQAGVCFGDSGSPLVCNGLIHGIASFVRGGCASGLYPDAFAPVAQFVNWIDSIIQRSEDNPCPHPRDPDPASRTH
Protocol: The anti-elastasic activity of compounds according to the invention is determined in vitro compared to the human leukocyte elastase (ELH).
The test is performed in the following way:
A Me-OSAAPV-p-NA (methyl-O-succinate alanine alanine proline valine-p-nitroaniline) substrate, onto which ELH (40 milli-units per ml) and 0.1% of the compound to be tested are applied, is left for incubating at 37° C. for 60 minutes.
Thereafter, the % inhibition of the control elastase activity is determined by spectrophotometry.

[2] = test system: surviving human skins treated by a human leukocyte elastase (ELH); experiment: ex vivo protection of elastic fibres in human skin fragments kept surviving 10 days with ELH (Example 5); format: cell-based; conditions: 0.5 μg ELH per ml; 5 μl of 0.2% solution in ethanol every two days; 10 days at 37° C.; three donors; control 7.4%, ELH alone 5.1%
Protocol: (§1) The ex vivo activity of example 2 compound has been evaluated on surviving human skins treated by a human leukocyte elastase (ELH).
(§2) The test is performed the following way.
Fragments of normal human skin from three different donors are deposited in inserts positioned in culture wells. Culture medium added with antibiotics is added in the bottom of the wells. A pass is performed through slow diffusion between the two compartments via a porous membrane (pore size: 12 μm).
(§3) The culture medium is renewed every three days.
On the skin fragments, optionally 0.5 μg ELH per ml culture medium are added.
5 μl of the compound to be tested are also added every two days, previously put in solution at 0.2% by weight in ethanol.
The skins are kept surviving for 10 days at 37° C.
The elastic fibres are colored in blue using catechin (+) and quantified morphometrically using a computer assisted image analysis, The average derma surface percentage occupied by elastic fibres is evaluated this way.

[3] = test system: surviving human skins irradiated by UVA (8 J/cm^2); experiment: protection of elastic fibres and collagen in surviving human skins irradiated by UVA (Example 6); format: cell-based; conditions: UVA 8 J/cm^2 once, 5 μl of 0.2% solution every two days, 7 days at 37° C.
Protocol: The activity of the example 2 compound has been evaluated on surviving human skins irradiated by UVA (8 J/cm^2).
as §2
Fragments of normal human skin from four different donors are deposited in inserts positioned in culture wells. Culture medium added with antibiotics is added in the bottom of the wells. A pass is performed through slow diffusion between the two compartments via a porous membrane (pore size: 12 μm).
as §3
On the skin fragments, every two days, 5 μl of the compound to be tested are added, previously put in solution at 0.2% wt in ethanol.
The skins are kept surviving for 7 days at 37° C.
The skins are radiated once at 8 J/cm^2 (RMX-3W Vilbert-Lourmat lamp).
The elastic fibres are colored in blue using catechin (+) and quantified morphometrically using a computer assisted image analysis. The average derma surface percentage occupied by elastic fibres is evaluated this way.

[4] = test system: surviving human skins treated by a human leukocyte elastase (ELH); experiment: ex vivo protection of elastic fibres in fresh human skin cuts treated with ELH for 2 hours (Example 4); format: cell-based; conditions: 20° C.
Protocol: as §1, §2
Fresh human skin cuts from two different donors are treated for 2 hours, at 20° C., by 20 μl of a buffer solution (pH 7.4) optionally comprising 10 μg/ml ELH and optionally 0.1% of the compound to be tested, optionally previously put in solution in ethanol.
The elastic fibres are colored in blue using catechin (+) and quantified morphometrically using a computer assisted image analysis. The average derma surface percentage occupied by elastic fibres Is evaluated this way.

inhibition of the elastase activity (in words) [1]: strong inhibition
Compound: CC(=O)N(c1cccc(C(F)(F)F)c1)C(C(=O)NCC(=O)O)C(C)C (stereo not drawn) [Example 2, {2-[acetyl-(3-trifluoromethyl-phenyl)-amino]-3-méthyl-butyrylamino}acetic acid]
% Surface occupied by elastic fibres [2]: 7.1%
Elastic fibres morphometric analysis (superficial derma) ([3]; untreated 6.75%, UVA alone 3.9%): 6.8%
Collagen morphometric analysis (superficial derma) ([3]; untreated 87%, UVA alone 81%): 92%
% Surface occupied by elastic fibres ([4]; Skin 1, 10 μg/ml ELH + 0.1% compound, control 12.7%, ELH alone 4.85%): 13.95%
% Surface occupied by elastic fibres ([4]; Skin 2, 10 μg/ml ELH + 0.1% compound, control 15.25%, ELH alone 6.85%): 11.85%
